Key:
Type in all cases: in vivo
Abutilon theophrasti [1] = experiment: Test Example 4: herbicidal effect by soil treatment (symbol M); conditions: application herbicide amount 320 g/ha
How it was run: (§1)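 Seeds were sown in sterilized diluvial soil, covered with about 1.5 cm of soil, and the soil surface was sprayed with a water-diluted emulsion of the compound at a predetermined rate. Plants grew in a greenhouse at 25° C. to 30° C.; effects were scored visually 3 weeks after application.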

[2] = system: Echinochloa oryzacola Vasing.; experiment: Test Example 1: herbicidal activity, application before weed generation in submerged conditions (symbol A); conditions: application herbicide amount 320 g/ha
How it was run: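 Ratings (5: ≥90%, near complete withering; 4: 70–<90%; 3: 40–<70%; 2: 20–<40%; 1: 5–<20%; 0: ≤5%) were assigned 3 weeks after the diluted emulsion was applied to the water surface of freshly sown, submerged pots.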

[3] = system: Echinochloa crus-galli var. crus-galli; experiment: Test Example 4: herbicidal effect by soil treatment (symbol H); conditions: application herbicide amount 320 g/ha
How it was run: as §1

corn = experiment: Test Example 5: effect on crop by foliage application, plastic box (symbol c); conditions: 320 g/ha, 3 weeks after application
How it was run: (§2)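 Diluvial soil, sterilized and boxed (21 × 13 × 7 cm), received spot-sown seed covered by about 1.5 cm soil; plants were then greenhouse-grown at 25–30° C.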

[4] = system: directly sowed rice plant; experiment: Test Example 3: effect on crop by foliage application, Wagner pot (symbol b); conditions: application herbicide amount 320 g/ha, Table 24
How it was run: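 Steps: fill a 1/10000-are Wagner pot with alluvial soil; add water and mix to submerge at 0.1–0.5 cm depth; sow rice plus Echinochloa crus-galli var. crus-galli, Leptochloa chinensis and Cyperus difformis; grow in a 25–30 °C greenhouse.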

Veronica persica = experiment: Test Example 5: herbicidal effect by foliage application, plastic box (symbol R); conditions: 320 g/ha, 3 weeks after application
How it was run: (§3)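 Sowing in sterilized diluvial soil, 14 days' greenhouse growth at 25° C. to 30° C., then uniform small-sprayer foliar application of aqueous emulsion dilution; plants scored three weeks afterwards.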

soybean [5] = experiment: Test Example 4: effect on crop by soil treatment (symbol d); conditions: application herbicide amount 320 g/ha
How it was run: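 Seeds were sown in spots on sterilized diluvial soil in a plastic box and covered with about 1.5 cm of soil. Plants were then grown in a greenhouse at 25° C. to 30° C.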

Galium spurium = experiment: Test Example 4: herbicidal effect by soil treatment (symbol Q); conditions: application herbicide amount 320 g/ha
How it was run: as §1

transplanted rice plant = experiment: Test Example 1: effect on crop, application before weed generation in submerged conditions (symbol a); conditions: application herbicide amount 320 g/ha
How it was run: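 Alluvial soil pots flooded to 4 cm water, sown with Echinochloa oryzacola, Scirpus juncoides and Monochoria vaginalis, then transplanted with 2.5 leaf stage rice seedlings; pre-emergence application. Greenhouse 25° C. to 30° C.; scored 0–5 by herbicidal ratio 3 weeks after application.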

Apera spica-venti = experiment: Test Example 4: herbicidal effect by soil treatment (symbol L); conditions: application herbicide amount 320 g/ha
How it was run: as §1

Avena fatua = experiment: Test Example 5: herbicidal effect by foliage application, plastic box (symbol I); conditions: 320 g/ha, 3 weeks after application
How it was run: as §3

Digitaria ciliaris = experiment: Test Example 5: herbicidal effect by foliage application, plastic box (symbol F); conditions: 320 g/ha, 3 weeks after application
How it was run: as §3

Abutilon theophrasti [6] = experiment: Test Example 5: herbicidal effect by foliage application, plastic box (symbol M); conditions: 320 g/ha, 3 weeks after application
How it was run: as §3

soybean [7] = experiment: Test Example 5: effect on crop by foliage application, plastic box (symbol d); conditions: 320 g/ha, 3 weeks after application
How it was run: as §2

Chenopodium album = experiment: Test Example 4: herbicidal effect by soil treatment (symbol O); conditions: application herbicide amount 320 g/ha
How it was run: as §1

Structure (SMILES) | Herbicidal effect grade, M: Abutilon theophrasti (Abutilon theophrasti [1]) | A (Echinochloa oryzacola Vasing.) herbicidal effect grade [2] | Herbicidal effect grade, H: Echinochloa crus-galli var. crus-galli [3] | c: corn, effect on crop grade (corn) | b (directly sowed rice plant) effect on crop grade [4] | R: Veronica persica, herbicidal effect grade (Veronica persica) | Effect on crop grade, d: soybean (soybean [5]) | Herbicidal effect grade, Q: Galium spurium (Galium spurium) | a (transplanted rice plant) effect on crop grade (transplanted rice plant) | Herbicidal effect grade, L: Apera spica-venti (Apera spica-venti) | I: Avena fatua, herbicidal effect grade (Avena fatua) | F: Digitaria ciliaris, herbicidal effect grade (Digitaria ciliaris) | M: Abutilon theophrasti, herbicidal effect grade (Abutilon theophrasti [6]) | d: soybean, effect on crop grade (soybean [7]) | M: Abutilon theophrasti, herbicidal effect grade (Abutilon theophrasti [1]) | H: Echinochloa crus-galli var. crus-galli, herbicidal effect grade [3] | d: soybean, effect on crop grade (soybean [5]) | Q: Galium spurium, herbicidal effect grade (Galium spurium) | L: Apera spica-venti, herbicidal effect grade (Apera spica-venti) | O: Chenopodium album, herbicidal effect grade (Chenopodium album) | also measured
CON=C(C)CC1C(O)=C(c2c(C)cc(C)cc2C)C(=O)C1C (mixture of isomers) [12-002] | 0 (Herbicidal ratio of 5% or lower (almost no effect)) | 5 (Herbicidal ratio of 90% or more (almost completely withered)) | 5 (Herbicidal ratio of 90% or more (almost completely withered)) | 5 (Herbicidal ratio of 90% or more (almost completely withered)) | 5 (Herbicidal ratio of 90% or more (almost completely withered)) | 4 (Herbicidal ratio of 70% or higher and lower than 90%) | 0 (Herbicidal ratio of 5% or lower (almost no effect)) | 0 (Herbicidal ratio of 5% or lower (almost no effect)) | 3 (Herbicidal ratio of 40% or higher and lower than 70%) | 3 (Herbicidal ratio of 40% or higher and lower than 70%) | 5 (Herbicidal ratio of 90% or more (almost completely withered)) | 5 (Herbicidal ratio of 90% or more (almost completely withered)) | 1 (Herbicidal ratio of 5% or higher and lower than 20%) | 1 (Herbicidal ratio of 5% or higher and lower than 20%) | – | – | – | – | – | – | Herbicidal effect grade, O: Chenopodium album (Chenopodium album): 0 (Herbicidal ratio of 5% or lower (almost no effect))
CCC(CC1CC(O)=C(c2c(C)cc(Br)cc2OC)C1=O)=NOC (mixture of isomers) [13-001] | – | 5 (Herbicidal ratio of 90% or more (almost completely withered)) | – | 5 (Herbicidal ratio of 90% or more (almost completely withered)) | 5 (Herbicidal ratio of 90% or more (almost completely withered)) | 0 (Herbicidal ratio of 5% or lower (almost no effect)) | – | – | 5 (Herbicidal ratio of 90% or more (almost completely withered)) | – | 5 (Herbicidal ratio of 90% or more (almost completely withered)) | 5 (Herbicidal ratio of 90% or more (almost completely withered)) | 1 (Herbicidal ratio of 5% or higher and lower than 20%) | 0 (Herbicidal ratio of 5% or lower (almost no effect)) | 0 (Herbicidal ratio of 5% or lower (almost no effect)) | 5 (Herbicidal ratio of 90% or more (almost completely withered)) | 0 (Herbicidal ratio of 5% or lower (almost no effect)) | 0 (Herbicidal ratio of 5% or lower (almost no effect)) | 5 (Herbicidal ratio of 90% or more (almost completely withered)) | 0 (Herbicidal ratio of 5% or lower (almost no effect)) | –
CCC(CC1CC(O)=C(c2c(C)cc(-c3ccccc3)cc2OC)C1=O)=NOC (mixture of isomers) [13-004] | – | 5 (Herbicidal ratio of 90% or more (almost completely withered)) | – | 5 (Herbicidal ratio of 90% or more (almost completely withered)) | 5 (Herbicidal ratio of 90% or more (almost completely withered)) | 3 (Herbicidal ratio of 40% or higher and lower than 70%) | – | – | 5 (Herbicidal ratio of 90% or more (almost completely withered)) | – | 5 (Herbicidal ratio of 90% or more (almost completely withered)) | 5 (Herbicidal ratio of 90% or more (almost completely withered)) | 1 (Herbicidal ratio of 5% or higher and lower than 20%) | 1 (Herbicidal ratio of 5% or higher and lower than 20%) | 0 (Herbicidal ratio of 5% or lower (almost no effect)) | 5 (Herbicidal ratio of 90% or more (almost completely withered)) | 1 (Herbicidal ratio of 5% or higher and lower than 20%) | 0 (Herbicidal ratio of 5% or lower (almost no effect)) | 5 (Herbicidal ratio of 90% or more (almost completely withered)) | 0 (Herbicidal ratio of 5% or lower (almost no effect)) | –
Cc1cc(Br)cc(C)c1C1=C(O)CC(CC(=O)C(C)C)C1=O (racemic) [10-003] | 0 (Herbicidal ratio of 5% or lower (almost no effect)) | 1 (Herbicidal ratio of 5% or higher and lower than 20%) | 5 (Herbicidal ratio of 90% or more (almost completely withered)) | 2 (Herbicidal ratio of 20% or higher and lower than 40%) | 5 (Herbicidal ratio of 90% or more (almost completely withered)) | 0 (Herbicidal ratio of 5% or lower (almost no effect)) | 0 (Herbicidal ratio of 5% or lower (almost no effect)) | 0 (Herbicidal ratio of 5% or lower (almost no effect)) | 3 (Herbicidal ratio of 40% or higher and lower than 70%) | 3 (Herbicidal ratio of 40% or higher and lower than 70%) | 3 (Herbicidal ratio of 40% or higher and lower than 70%) | 3 (Herbicidal ratio of 40% or higher and lower than 70%) | 0 (Herbicidal ratio of 5% or lower (almost no effect)) | 0 (Herbicidal ratio of 5% or lower (almost no effect)) | – | – | – | – | – | – | Herbicidal effect grade, O: Chenopodium album (Chenopodium album): 0 (Herbicidal ratio of 5% or lower (almost no effect))
COc1cc(Br)cc(C)c1C1=C(O)CC(CC(=O)C2CC2)C1=O (racemic) [14-001] | – | 4 (Herbicidal ratio of 70% or higher and lower than 90%) | – | 5 (Herbicidal ratio of 90% or more (almost completely withered)) | 5 (Herbicidal ratio of 90% or more (almost completely withered)) | 2 (Herbicidal ratio of 20% or higher and lower than 40%) | – | – | 5 (Herbicidal ratio of 90% or more (almost completely withered)) | – | 5 (Herbicidal ratio of 90% or more (almost completely withered)) | 5 (Herbicidal ratio of 90% or more (almost completely withered)) | 4 (Herbicidal ratio of 70% or higher and lower than 90%) | 2 (Herbicidal ratio of 20% or higher and lower than 40%) | 0 (Herbicidal ratio of 5% or lower (almost no effect)) | 5 (Herbicidal ratio of 90% or more (almost completely withered)) | 0 (Herbicidal ratio of 5% or lower (almost no effect)) | 0 (Herbicidal ratio of 5% or lower (almost no effect)) | 5 (Herbicidal ratio of 90% or more (almost completely withered)) | 0 (Herbicidal ratio of 5% or lower (almost no effect)) | –

— patent US11000033B2, “Ketone or oxime compound, and herbicide” (NISSAN CHEMICAL CORPORATION, priority 2014, dated 2021)
